Tests used:
db/db mice = assay: db/db mouse model of type II diabetes, 10-day daily oral dosing; format: in vivo; conditions: daily oral gavage 10 days, h-rac-pio 30 mg/kg, vs. vehicle; for decrease of inflammatory biomarker IL-6 / decrease of inflammatory biomarker TNF-α: d-R-pio 20 mg/kg; for adiponectin: d-S-pio 20 mg/kg
Method: Body weights were measured throughout the study. Non-fasting blood glucose (10 μL by tail snip) was measured 4 hours prior to first dose, and animals were sorted and assigned to groups based on this measure. […] A terminal blood sample was collected for determination of serum levels of cholesterol, triglycerides, free fatty acids, adiponectin, serum amyloid A, and cytokines IL-6, TNF-α, and MCP-1, using standard analytical methods. Quantitative results were analyzed by statistical methods using, as appropriate, one- or two-way ANOVA or Kruskal-Wallis tests for differences followed by Sidak's, Dunnett's, or Dunn's post-test to determine differences vs. vehicle-treated control animals. All graphs were generated with GraphPad Prism version 6.0.2 (GraphPad Software, Inc., La Jolla, Calif.).

[1] = Body weight gain in male C57BL/6J mice on a standard diet; format: in vivo, mouse; conditions: twice daily oral gavage 11 days, overall daily dose h-rac-pio 30 mg/kg, d-S-pio 15 mg/kg, d-R-pio 15 mg/kg, vs. vehicle
Method: Male C57BL/6J mice (about 28 g body weight) were acclimated singly-housed for one week to a reverse light/dark cycle with free access to water and standard maintenance diet. Animals were then handled daily for one week followed by another 7 days of twice daily dosing with vehicle (0.5% methylcellulose in water) by oral gavage. […] Body weights were measured twice daily, prior to each dosing, to adjust individual dosing volumes to actual body weights.

[2] = Pharmacokinetics in male C57BL/6 mice, oral gavage once a day for 5 days; conditions: day 5, d-S-pio or d-R-pio 15 mg/kg oral gavage daily; for t1/2 d-S: elimination half-life of analyte d-S-pio; for t1/2 h-R: elimination half-life of analyte h-R-pio; for t1/2 h-R / t1/2 h-S: h-rac-pio 30 mg/kg; for t1/2 h-S: elimination half-life of analyte h-S-pio
Method: Animals were then euthanized. Plasma was separated by centrifugation and stored at −80° C. until analyzed.
Concentrations were calculated by interpolation on standard curves generated from mouse plasma samples spiked with known concentrations of the pure analytes.

SMILES: [2H][C@]1(Cc2ccc(OCCc3ccc(CC)cn3)cc2)SC(=O)NC1=O [d-R-pio, (R)-5-({p-[2-(5-ethyl-2-pyridyl)ethoxy]phenyl}methyl)-(5-^2H)-1,3-thiazolidine-2,4-dione]
- decrease of inflammatory biomarker IL-6 (db/db mice): trending
- decrease of inflammatory biomarker TNF-α (db/db mice): trending
- percent body weight difference versus day 1 body weight [1]: did not increase percent body weight difference over vehicle
- t1/2 d-S [2]: 0.8 h
- t1/2 h-R [2]: 2.5 h
- t1/2 h-S [2]: 2.5 h

SMILES: [2H][C@@]1(Cc2ccc(OCCc3ccc(CC)cn3)cc2)SC(=O)NC1=O [d-S-pio, (S)-5-({p-[2-(5-Ethyl-2-pyridyl)ethoxy]phenyl}methyl)-(5-^2H)-1,3-thiazolidine-2,4-dione]
- adiponectin (db/db mice): significantly increased adiponectin
- percent body weight difference versus day 1 body weight [1]: statistically significant increase in percent body weight difference compared to dosing with vehicle
- t1/2 d-S [2]: 2.3 h
- t1/2 h-R [2]: 3.2 h
- t1/2 h-S [2]: 3.1 h

SMILES: CCc1ccc(CCOc2ccc(CC3SC(=O)NC3=O)cc2)nc1 (racemic) [h-rac-pio, rac-5-({p-[2-(5-Ethyl-2-pyridyl)ethoxy]phenyl}methyl)-1,3-thiazolidine-2,4-dione]
- decrease of inflammatory biomarker IL-6 (db/db mice): trending
- decrease of inflammatory biomarker TNF-α (db/db mice): trending
- adiponectin (db/db mice): significantly increased adiponectin
- insulin (db/db mice): significantly decreased insulin
- percent body weight difference versus day 1 body weight [1]: statistically significant increase in percent body weight difference compared to dosing with vehicle

Reference: patent US11141411B2, “Methods of treating neurological, metabolic, and other disorders using enantiopure deuterium-enriched pioglitazone” (Poxel SA, priority 2014, dated 2021)
